The results in this text go back to patent US20080058210A1, “Method of isolating shikimic acid from a plant” (priority 2006, published 2008).

Structures are written as SMILES.

The test system of this assay is Express spring wheat. The assay is described as follows: Field trial plots with glyphosate on Express spring wheat; shikimic acid in whole above ground plant by water extraction and HPLC. It is filed as in vivo. As to the method: Field trial plots with glyphosate on Express spring wheat were established at three treatment levels, untreated control, 4 oz formulated/acre, and 14 oz formulated/acre. Field site studies were conducted in eastern Washington, near Kennewick, Wash. There were buffer zones around each treat level and control plot. The whole above ground plant was harvested at time zero, 5, 10, 15, and 20 days after application. The samples were cooled immediately and frozen within one hour. The samples were received from the field and stored in the freezer at <−10 C. At the time of application plants were 8-10 inches tall, after 20 days the control plants were 20-24 inches and beginning to head out.
Plant tissue was placed in an open container and dried at ca. 70 C overnight (14 to 16 hrs). Each sample was ground to pass through a 20 mesh screen. The ground sample was placed in a glass jar. Sealed samples may be stored at ≦−10 C for several months (the longest time tested). Approximately 150 mg of dry ground sample weight was placed into a screw cap bottle, 30 mL of DI water was added, and the bottle was capped and placed on a shaker overnight (14 to 16 hrs) at a minimum of 50 rpm. Extracts were filtered through a Whatman GF/A filter. For quantification, an aliquot was filtered (0.45 μm disposable) into an HPLC auto-sampler vial.
HPLC analysis was performed on a Perkin-Elmer ISS 200. Instrument conditions were as follows: column 250×4.6 mm ALTEX Ultrasphere 5 μm ODS (or equivalent);mobile phase (isocratic) 50 mM KH2PO4 solution adjusted to pH 2.4; flow rate 2 mL/min, detector 214 nm. Calibration curves consisted of 1, 5, 10, 50, 100 and 200 μg/mL standards, r^2 values were ≧0.998. Retention time was ca. 2.0 min.

Regarding `O=C(O)CNCP(=O)(O)O` [glyphosate], the “shikimic acid level, factor above normal” value by setting is: (higher treat rate 14 oz formulated/acre, day-5) 6; (higher treat rate 14 oz formulated/acre, day-10) 10; (low treat rate 4 oz formulated/acre, day-5 sampling) 4; (low treat rate 4 oz formulated/acre, day-10) 2. Moreover, the “shikimic acid level relative to normal” value reads like this: (higher treat rate 14 oz formulated/acre, through the study period of 20 days) “remains elevated”; (low treat rate 4 oz formulated/acre, day 20) “within normal levels”; (low treat rate 4 oz formulated/acre, day-15) “nearly within normal range”.
